Data reported in patent publication US7879876B2, “Sulfonamide derivatives and use thereof for the modulation of metalloproteinases” (Merck Serono SA, priority 2005, dated 2011).

Key:
Assay type in all cases: biochemical
metalloelastase (MMP-12) = metalloelastase (MMP-12) (Homo sapiens, UniProt P39900); test: MMP-12 enzyme inhibition assay (coumarin-labelled peptide substrate); conditions: read-out: IC50 MMP12
How it was run: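 Recombinant human MMP-12 assayed per the MMP-9 protocol: Tris-HCl pH 7.6 buffer with NaCl, CaCl2, Brij 35; McaPLGLDpaAR substrate, compounds 100 μM–5.1 nM in duplicate, 2 h at 37° C. Fluorescence read at 405 nm (320 nm excitation) without stopping; IC50 from four-parameter fit.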

MMP-14 = MMP-14 (Homo sapiens, UniProt P50281); test: MMP-14 enzyme inhibition assay (coumarin-labelled peptide substrate); conditions: read-out: percentage inhibition MMP14
How it was run: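 Recombinant human enzyme, APMA-activated if necessary, was incubated with McaPLGLDpaAR substrate and compound (10 concentrations in duplicate, 100 μM to 5.1 nM) in Tris-HCl pH 7.6 with NaCl, CaCl2 and Brij 35 for 2 h at 37 °C. Fluorescence was read at 320/405 nm, and IC50 was taken from a four-parameter fit.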

gelatinase A (MMP-2) = molecular target: T1, gelatinase A (MMP-2) (Homo sapiens, UniProt P08253); test: MMP-2 enzyme inhibition assay (coumarin-labelled peptide substrate); conditions: read-out: IC50 MMP2
T1 sequence (P08253 110-660): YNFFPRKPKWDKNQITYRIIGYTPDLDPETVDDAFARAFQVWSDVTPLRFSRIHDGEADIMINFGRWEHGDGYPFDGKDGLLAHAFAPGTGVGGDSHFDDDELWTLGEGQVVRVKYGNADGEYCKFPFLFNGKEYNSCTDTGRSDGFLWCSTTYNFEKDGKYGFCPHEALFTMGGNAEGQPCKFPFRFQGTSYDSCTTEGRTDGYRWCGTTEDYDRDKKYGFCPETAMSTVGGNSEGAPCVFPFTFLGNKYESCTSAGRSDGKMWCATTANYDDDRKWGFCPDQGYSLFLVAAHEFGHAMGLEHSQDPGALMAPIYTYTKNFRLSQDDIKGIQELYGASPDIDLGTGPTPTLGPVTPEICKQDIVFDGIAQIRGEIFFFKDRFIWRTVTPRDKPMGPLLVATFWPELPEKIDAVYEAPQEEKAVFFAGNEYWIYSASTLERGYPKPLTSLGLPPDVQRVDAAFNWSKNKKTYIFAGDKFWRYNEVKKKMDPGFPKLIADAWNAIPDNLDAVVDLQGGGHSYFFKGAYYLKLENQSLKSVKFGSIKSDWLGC
How it was run: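 Recombinant human MMP-2, APMA-activated if necessary, run as for the MMP-9 protocol: McaPLGLDpaAR substrate (8 μM working dilution) in 100 mM Tris-HCl pH 7.6, 100 mM NaCl, 10 mM CaCl2, 0.05% Brij 35; ten 3-fold concentrations (100 μM–5.1 nM) in duplicate, 2 h at 37° C. Fluorescence ex 320/em 405 nm, unstopped; IC50 from four-parameter fit.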

Sequence of metalloelastase (MMP-12) (P39900 106-470): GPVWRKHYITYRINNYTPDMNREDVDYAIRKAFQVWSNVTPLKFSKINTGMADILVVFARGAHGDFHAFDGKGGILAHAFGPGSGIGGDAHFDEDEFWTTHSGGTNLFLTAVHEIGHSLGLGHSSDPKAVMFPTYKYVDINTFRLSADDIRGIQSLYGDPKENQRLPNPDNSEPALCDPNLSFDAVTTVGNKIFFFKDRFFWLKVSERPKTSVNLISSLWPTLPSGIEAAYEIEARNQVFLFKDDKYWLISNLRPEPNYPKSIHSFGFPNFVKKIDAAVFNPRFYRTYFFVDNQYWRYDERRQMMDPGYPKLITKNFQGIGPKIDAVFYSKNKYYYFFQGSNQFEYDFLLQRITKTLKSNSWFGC

IC50 (metalloelastase (MMP-12)) [nM]	inhibition at 0.1 µM (MMP-14) [%]	inhibition at 5 µM (MMP-14) [%]	IC50 (gelatinase A (MMP-2)) [nM]	Compound
6	11	92	219	O=CN(O)C(CS(=O)(=O)N1CCc2ccc(-c3ccc(F)cc3)cc2C1)C1CC1 (centres unmarked) [Example 75, N-(1-cyclopropyl-2-{[7-(4-fluorophenyl)-3,4-dihydro-isoquinolin-2(1H)-yl]sulfonyl}ethyl)-N-hydroxyformamide]
22	–	59	82	O=CN(O)C(CCC(F)(F)F)CS(=O)(=O)N1CCc2ccc(Cl)cc2C1 (centres unmarked) [Example 76, N-(1-{[(7-chloro-3,4-dihydroisoquinolin-2(1H)-yl)-sulfonyl]methyl}-4,4,4-trifluorobutyl)-N-hydroxyformamide]
5.1	–	78	31	O=CN(O)C(CS(=O)(=O)N1CCc2cc(Cl)c(Cl)cc2C1)C1CCCC1 (centres unmarked) [Example 77, N-{1-cyclopentyl-2-[(6,7-dichloro-3,4-dihydroisoquinolin-2(1H)-yl)sulfonyl]ethyl}-N-hydroxyformamide]
2	19	72	67	O=CN(O)C(CS(=O)(=O)N1CCc2ccc(-c3ccncc3)cc2C1)C1CCCC1 (centres unmarked) [Example 79, N-{1-cyclopentyl-2-[(7-pyridin-4-yl-3,4-dihydroisoquinolin-2(1H)-yl)sulfonyl]ethyl}-N-hydroxyformamide]
45	–	15	474	O=CN(O)C(CS(=O)(=O)N1Cc2ccc(F)cc2C1)C1CCCC1 (centres unmarked) [Example 80, N-{1-cyclopentyl-2-[(5-fluoro-1,3-dihydro-2H-isoindol-2-yl)sulfonyl]ethyl}-N-hydroxyformamide]
3.1	0	87	63	CC(C)c1ccc2c(c1)CCN(S(=O)(=O)CC(C1CCCC1)N(O)C=O)C2 (centres unmarked) [Example 81, N-{1-cyclopentyl-2-[(6-isopropyl-3,4-dihydroisoquinolin-2(1H)-yl)sulfonyl]ethyl}-N-hydroxyformamide]
26	–	20	348	O=CN(O)C(CS(=O)(=O)N1CCc2ccc(C(F)(F)F)cc2C1)C1CCCC1 (centres unmarked) [Example 82, N-(1-cyclopentyl-2-{[7-(trifluoromethyl)-3,4-dihydro-isoquinolin-2(1H)-yl]sulfonyl}ethyl)-N-hydroxyformamide]
52	–	6	686	O=CN(O)C(CS(=O)(=O)N1CCc2ccc(C(F)(F)F)cc2C1)C1CC1 (centres unmarked) [Example 83, N-(1-cyclopropyl-2-{[7-(trifluoromethyl)-3,4-dihydroisoquinolin-2(1H)-yl]sulfonyl}ethyl)-N-hydroxyformamide]
4.9	14	95	78	CC(C)c1ccc2c(c1)CCN(S(=O)(=O)CC(C1CC1)N(O)C=O)C2 (centres unmarked) [Example 85, N-{1-cyclopropyl-2-[(6-isopropyl-3,4-dihydroisoquinolin-2(1H)-yl)sulfonyl]ethyl}-N-hydroxyformamide]
9.8	12	100	21	O=CN(O)C(CCc1cccnc1)CS(=O)(=O)N1CCc2ccc(Cl)cc2C1 (centres unmarked) [Example 86, N-(1-{[(7-chloro-3,4-dihydroisoquinolin-2(1H)-yl)sulfonyl]methyl}-3-pyridin-3-ylpropyl)-N-hydroxyformamide]
